One compound from patent publication US6538005B2, “Phenanthridine-N-oxides with PDE-IV inhibiting activity” (ALTANA Pharma AG, priority 1999, dated 2003) can be followed below.

In one data set the test system is PDE4. The data set can be described thus: Inhibition of PDE4 activity (method of Bauer and Schwabe, adapted to microtiter plates). In kind it is biochemical. The note with it: inhibitory concentration as −log IC50 (mol/l). The text has this: The activity test can be carried out, for example, according to the method of Bauer and Schwabe. For this, the method is adapted to microfiter plates (Naunyn-Schmiedeberg's Arch. Pharmacol. 1980, 311, 193-198). The PDE reaction takes place in the first step here. In a second step, the resulting 5′-nucleotide is cleaved by a 5′-nucleotidase of the snake venom of Crotalus atrox to the uncharged nucleoside. In the third step, the nucleoside is separated from the remaining charged substrate on ion-exchange columns. The columns are eluted directly into minivials, into which 2 ml of scintillator fluid are additionally added for counting, using 2 ml of 30 mM ammonium formate (pH 6.0).
The inhibitory values determined for the compounds according to the invention [inhibitory concentration as −log IC50 (mol/l)] follow from the following Table A, in which the numbers of the compounds correspond to the numbers of the examples.

As usually defined, the melting point is the temperature, or range, at which the solid turns liquid. Consider `COc1ccc(NC(=O)c2cccc(C3=[N+]([O-])C4CCCCC4c4cc(OC)c(OC)cc43)c2)cc1` (single isomer, unassigned; (-)) [Compound 1, (−)-cis-8,9-Dimethoxy-6-[3-(4-methoxyphenylamido)phenyl]-1,2,3,4,4a,10b-hexahydrophenanthridine-5-N-oxide], for which the melting point is 229 to 230 °C. The “−log IC50” value in the data set on PDE4 is listed as 6.73 mol/l.
